# From US20150050299A1, “METHODS FOR ENHANCING IMMUNE RESPONSE” (priority 2010, published 2015)
# Where two headings read alike, the source gives them in different places.
# Assays:
# 4T1 breast cancer cells = conditions: mouse, in vivo; cited from earlier work
# L1210 leukemia = conditions: cited from earlier work
# [1] = test system: squamous cell carcinomas (SCCs); assay type: in vivo; conditions: agent alone
# Method: The combination therapy of polyamine biosynthesis/uptake inhibition was tested against the K6/ODC transgenic mouse murine squamous cell carcinoma (SCC) model recently described.^98 The K6/ODC model was developed to assess whether ODC overexpression was a contributing cause, or an effect of malignant transformation. […] While most skin tumorigenesis models yielded benign squamous papillomas as the predominant tumor type, when the K6/ODC transgene was expressed on the FVB/N strain background, the majority of tumors that developed were aggressive squamous cell carcinomas. These SCCs appeared as early as 5 weeks after treatment and in high multiplicities (up to four tumors per mouse), making this a very efficient model for SCC induction. Using this model, we were thus able to conclude that over-expression of ODC is a sufficient condition for tumor promotion in mouse skin.^99
# We conducted an in vivo anti-tumor trial of DFMO combined with either the D-C16-acyl Lys-spm conjugate AMXT 1501 (FIG. 4) or the L-C16-alkyl AMXT 1569 analog (FIG. 5) in the K6/ODC SCC model.
# The concentration of AMXT 1501 was 14 μg/ml, or an average daily dose of ˜50-65 μg (equivalent to ˜3 mg/kg/d). […] It is expected that great improvements in the oral bioavailability of AMXT 1501 would result from insightful drug formulation.
# UVB-induced skin cancer = conditions: 1% in drinking water for 3 weeks before UVB; untreated control 38%; cited from earlier work
# [2] = test system: UV-induced tumor challenges; conditions: splenocytes from UV-irradiated treated mice; without treatment 20 of 24; cited from earlier work
# B16F1 cells = conditions: 0.5 to 2.0% oral; cited from earlier work
# iNOS protein translation [3] = conditions: read-out: IC50, iNOS protein translation; RAW 264.7 cells; cited from earlier work
# iNOS protein translation [4] = conditions: read-out: IC50, iNOS protein translation; peritoneal macrophages; cited from earlier work
# L1210 cells = conditions: i.p. 5 mg/kg for 9 days; cited from earlier work
structure (smiles),measurement,setting,value
"c1cc(CN2CCCNCCNCCCNCC2)ccc1CN1CCCNCCNCCCNCC1 [AMD3100, plerixafor]",growth of transplanted 4T1 cells,4T1 breast cancer cells,significantly reduced
"CCNCCCNCCCCCCCNCCCNCC [BEPH, N,N′-bis[3-(ethylamino)-propyl]-1-7-heptane diamine]",outcome of L1210 leukemia,L1210 leukemia; T-cell deficient nude mice,not curative
same,effect on tumor or spleen cell polyamine levels,L1210 leukemia; at the doses used,no effect
same,outcome of L1210 leukemia,L1210 leukemia; immunocompetent C57BL mice,cured
"NCCC[C@](N)(C(=O)O)C(F)F [DFMO, α-difluoromethylornithine]",anti-tumor response to single agent,[1],weak effect
same,occurrence of skin cancer,UVB-induced skin cancer,9%
same,recipient mice in which tumors grew,[2],2 of 24
same,macrophage mediated cytolysis of B16F1 cells,B16F1 cells,two-fold augmented
NCCCNCCCCNCCCN [spermine],IC50,iNOS protein translation [3],9.2 µM
same,IC50,iNOS protein translation [4],9 µM
NCCCNCCCCNC(=O)[C@H](O)NC(=O)C[C@@H](O)CCCCN=C(N)N [sperqualin],survival,L1210 cells,more than 60 days
